From paper PMC7942396, “Drug Repurposing Screen for Compounds Inhibiting the Cytopathic Effect of SARS-CoV-2” (Frontiers in Pharmacology, 2021) come the findings set out here.

Counter-ions that a name gives are not always drawn. Like-named read-outs stand apart in the source and are kept apart here.

The term EC50 denotes the concentration that produces a half-maximal response.

In data set [1] the test system is SARS-CoV-2 (USA_WA1/2020). Nature of the data set: microbe, parasite or virus in culture. The data set is classed as cell-based.
A short description of data set [2]: in vitro. Conditions: African green monkey.
Where [3] appears, read: Severe acute respiratory syndrome coronavirus 2, Vero C1008, SARS-CoV-2 CPE assay, Vero E6 cells, read-out: CPE % Efficacy.
Where [4] appears, read: Severe acute respiratory syndrome coronavirus 2, Vero C1008, SARS-CoV-2 CPE assay, Vero E6 cells, read-out: CPE EC50.
Where [5] appears, read: Severe acute respiratory syndrome coronavirus 2, Vero C1008, SARS-CoV-2 CPE assay, Vero E6 cells, confirmed anti-SARS-CoV-2 compounds, read-out: CPE EC50.
Where [6] appears, read: Severe acute respiratory syndrome coronavirus 2, Vero C1008, SARS-CoV-2 CPE assay, Vero E6 cells, efficacy, read-out: CPE % Efficacy.
Setting [7] is: Severe acute respiratory syndrome coronavirus 2, Vero C1008, read-out: CPE % Efficacy.

Consider `CCn1c(=O)c(-c2cc(NC(=O)Nc3ccccc3)c(F)cc2Br)cc2cnc(NC)cc21` [DCC-2618], for which the Emax in data set [1] (setting [3]) came out at 65.4%. The EC50 in data set [1] (setting [4]) came to 12.6 µM. Also, in data set [2], the CC50 at 72 h worked out at 11.2 µM and the cytotoxicity at 72 h came to 48.5%.

Consider `CC(C(O)c1ccccc1)N(C)CCOC(c1ccccc1)c1ccccc1` (stereo not shown) [Difeterol, reference compound], for which the EC50 in data set [1] (Severe acute respiratory syndrome coronavirus 2, Vero C1008, 72 h, read-out: CPE EC50) was 10 µM. Also, the Emax in data set [1] (Severe acute respiratory syndrome coronavirus 2, Vero C1008, […], DMSO 0%, no-virus control 100%, hit confirmation, read-out: CPE % efficacy) was determined as 113%. Also, the cytotoxicity at 72 h in data set [2] is under 30%.

Turning to `CCN(CC)CCOc1ccc2c(c1)C(=O)c1cc(OCCN(CC)CC)ccc1-2` [TILORONE], the EC50 in data set [1] (setting [5]) worked out at 3.98 µM. In data set [1] (setting [6]), the Emax is 74.3%. In data set [2], this compound gave a CC50 at 72 h of 11.2 µM and a cytotoxicity at 72 h of 97.2%.

With `Cc1cc(O[C@@H](CCC(F)(F)F)c2ccc(C(=O)NCCC(=O)O)cc2)cc(C)c1-c1ccc(C(C)(C)C)cc1` [Adomeglivant], in data set [1] (setting [5]), the EC50 worked out at 3.16 µM. For the same compound, in data set [1] (setting [6]), the Emax amounted to 49.2%. Moreover, the cytotoxicity at 72 h in data set [2] amounted to 37%.

Regarding `CN1CCC(=C2c3ccccc3CCc3sccc32)CC1` [Pizotifen], the EC50 in data set [1] (setting [5]) was found to be 11.2 µM. Moreover, the Emax in data set [1] (setting [6]) came out at 111%. Further, in data set [2], the CC50 at 72 h is 11.2 µM and the cytotoxicity at 72 h turned out to be 13.4%.

With `COc1cc(N2CCN(C)CC2)ccc1Nc1nccc(-c2cn(C)c3cnccc23)n1` [AZ-191], in data set [1] (setting [5]), the EC50 was found to be 8.91 µM. In data set [1] (setting [6]), the Emax was found to be 79.2%. In data set [2], this compound yielded a CC50 of 11.2 µM and a cytotoxicity of 31.2%.

On to `CCCNCC(O)COc1ccccc1C(=O)CCc1ccccc1` (stereo not shown) [Propafenone hydrochloride], for which, in data set [1] (setting [3]), the Emax is 61.6%. Moreover, in data set [1] (setting [4]), the EC50 came to 14.1 µM. Besides, the cytotoxicity in data set [2] worked out at 0%.

As for `CCN(CC)CCN(Cc1ccc(-c2ccc(C(F)(F)F)cc2)cc1)C(=O)Cn1c(SCc2ccc(F)cc2)nc(=O)c2c1CCC2` [Darapladib], in data set [1] (setting [5]), the EC50 turned out to be 2.82 µM. In addition, the Emax in data set [1] (setting [6]) was found to be 75.1%. Moreover, in data set [2], the CC50 worked out at 11.2 µM and the cytotoxicity amounted to 102%.

As for `O=C1Nc2ccc(Cl)cc2[C@@](C#CC2CC2)(C(F)(F)F)O1` [Efavirenz], the Emax in data set [1] (setting [3]) came to 90.6%. In data set [1] (setting [4]), the EC50 is 14.1 µM. This compound had a cytotoxicity in data set [2] of 24.3%.

`Cc1ccc(-c2cc(C(F)(F)F)nn2-c2ccc(S(N)(=O)=O)cc2)cc1` [Celecoxib]: the EC50 in data set [1] (setting [5]) came to 11.2 µM. The Emax in data set [1] (setting [6]) came out at 79.2%. In addition, in data set [2], the CC50 came to 15.8 µM and the cytotoxicity was 9%.

Take `CNCCC=C1c2ccccc2CCc2ccccc21` [Pamelor]: the Emax in data set [1] (setting [7]) was found to be 103%. Moreover, the EC50 in data set [1] (Severe acute respiratory syndrome coronavirus 2, Vero C1008, read-out: CPE EC50 (uM)) amounted to 12.6 µM. The compound further came in with a cytotoxicity in data set [2] of 0%.

For the compound `CN(C)CCCN1c2ccccc2CCc2ccccc21` [Imipramine], in data set [1] (setting [3]), the Emax was 57.6%. The EC50 in data set [1] (setting [4]) was 12.6 µM. This compound displayed a cytotoxicity in data set [2] of 0%.

In the case of `COC(=O)C1=C(C)NC(C)=C(C(=O)OCCN(C)Cc2ccccc2)C1c1cccc([N+](=O)[O-])c1` (stereo not shown) [Nicardipine], the Emax in data set [1] (setting [3]) was 56.3%. Further, the EC50 in data set [1] (setting [4]) was 12.6 µM. In data set [2], the CC50 stood at 12.6 µM and the cytotoxicity was 32.8%.

As for `CN(C)CCCN1c2ccccc2Sc2ccc(Cl)cc21` [Chlorpromazine], in data set [1] (setting [3]), the Emax is 102%. The EC50 in data set [1] (setting [4]) worked out at 12.6 µM. In data set [2], this compound yielded a CC50 of 11.2 µM and a cytotoxicity of 45.6%.

Turning to `CCCCCCCCn1cc(CC(N)=O)c2cc(-c3cccc(C)c3)ccc21` [Cysmethynil], the EC50 in data set [1] (setting [5]) came out at 11.2 µM. In addition, in data set [1] (setting [6]), the Emax amounted to 89.1%. In data set [2], the cytotoxicity at 72 h was determined as 106%.

As for `CN1CCN(CC/C=C2/c3ccccc3Sc3ccc(S(=O)(=O)N(C)C)cc32)CC1` [THIOTHIXENE], the EC50 in data set [1] (setting [5]) was determined as 3.98 µM. Further, the Emax in data set [1] (setting [6]) is 70.6%. In data set [2], this compound came in with a CC50 of 12.6 µM and a cytotoxicity of 108%.

`CNCCCC1c2ccccc2C=Cc2ccccc21` [Protriptyline hydrochloride]: the Emax in data set [1] (setting [7]) was found to be 58.2%. In data set [1] (Severe acute respiratory syndrome coronavirus 2, Vero C1008, read-out: CPE EC50), the EC50 worked out at 11.2 µM. Further, in data set [2], the CC50 amounted to 12.6 µM and the cytotoxicity was determined as 17.4%.
